Experimental data as given in PubChem BioAssay (NCI).
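48-hour exposure; five concentrations; linearly interpolated endpoints. TGI marks complete inhibition of growth.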

How the values were obtained:
Assay in all cases: NCI-60 cell line screen, 48 h
[1] = system: 786-0 renal
[2] = system: A498 renal
[3] = system: A549 NSCLC
[4] = system: ACHN renal
[5] = system: CCRF-CEM leukemia
[6] = system: COLO 205 colon
[7] = system: DLD-1 colon
[8] = system: DMS 114 small cell lung
[9] = system: DMS 273 small cell lung
[10] = system: EKVX NSCLC
[11] = system: HL-60(TB) leukemia
[12] = system: HOP-18 NSCLC
[13] = system: HT29 colon
[14] = system: IGROV1 ovarian
[15] = system: K-562 leukemia
[16] = system: LOX IMVI melanoma
[17] = system: LXFL 529 NSCLC
[18] = system: M14 melanoma
[19] = system: M19-MEL melanoma
[20] = system: MOLT-4 leukemia
[21] = system: NCI-H226 lung
[22] = system: NCI-H23 lung
[23] = system: NCI-H460 lung
[24] = system: OVCAR-3 ovarian
[25] = system: OVCAR-4 ovarian
[26] = system: OVCAR-5 ovarian
[27] = system: OVCAR-8 ovarian
[28] = system: RPMI-8226 leukemia
[29] = system: RXF 393 renal
[30] = system: SF-268 CNS
[31] = system: SF-295 CNS
[32] = system: SF-539 CNS
[33] = system: SK-MEL-28 melanoma
[34] = system: SK-MEL-5 melanoma
[35] = system: SK-OV-3 ovarian
[36] = system: SNB-19 CNS
[37] = system: SNB-75 CNS
[38] = system: SNB-78 CNS
[39] = system: SR leukemia
[40] = system: SW-620 colon
[41] = system: TK-10 renal
[42] = system: U251 CNS
[43] = system: UO-31 renal
[44] = system: BT-549 breast
[45] = system: CAKI-1 renal
[46] = system: DU-145 prostate
[47] = system: HCC-2998 colon
[48] = system: HCT-116 colon
[49] = system: HCT-15 colon
[50] = system: HOP-62 NSCLC
[51] = system: HOP-92 NSCLC
[52] = system: HS 578T breast
[53] = system: KM12 colon
[54] = system: MALME-3M melanoma
[55] = system: MCF7 breast
[56] = system: MDA-MB-231 breast
[57] = system: MDA-MB-435
[58] = system: MDA-N
[59] = system: NCI-H522 lung
[60] = system: NCI/ADR-RES ovarian
[61] = system: PC-3 prostate
[62] = system: SK-MEL-2 melanoma
[63] = system: SN12C renal
[64] = system: T-47D breast
[65] = system: UACC-257 melanoma
[66] = system: UACC-62 melanoma

SMILES: O=C1C(=C2C(=O)c3ccccc3[N+]2=O)N([O-])c2ccccc21
- TGI [1]: 46.1 µM
- TGI [2]: 73.8 µM
- TGI [3]: > 100 µM
- TGI [4]: 91.4 µM
- TGI [5]: 63.8 µM
- TGI [6]: 33 µM
- TGI [7]: 88.6 µM
- TGI [8]: 33.9 µM
- TGI [9]: 89.5 µM
- TGI [10]: 42.2 µM
- TGI [11]: 48.5 µM
- TGI [12]: 71.5 µM
- TGI [13]: 94.1 µM
- TGI [14]: > 100 µM
- TGI [15]: 50.1 µM
- TGI [16]: 29.8 µM
- TGI [17]: 43.5 µM
- TGI [18]: 43.7 µM
- TGI [19]: 68.4 µM
- TGI [20]: 48.7 µM
- TGI [21]: 81.4 µM
- TGI [22]: 77.7 µM
- TGI [23]: 55.3 µM
- TGI [24]: 39.7 µM
- TGI [25]: 31.7 µM
- TGI [26]: > 100 µM
- TGI [27]: 50.4 µM
- TGI [28]: 57.7 µM
- TGI [29]: 90.6 µM
- TGI [30]: 88.5 µM
- TGI [31]: > 100 µM
- TGI [32]: 47.7 µM
- TGI [33]: > 100 µM
- TGI [34]: 32.5 µM
- TGI [35]: > 100 µM
- TGI [36]: > 100 µM
- TGI [37]: 83.8 µM
- TGI [38]: > 100 µM
- TGI [39]: 79.4 µM
- TGI [40]: 47.5 µM
- TGI [41]: 81.1 µM
- TGI [42]: 53.9 µM
- TGI [43]: > 100 µM

SMILES: COc1ccccc1Nc1nc(N)nc(N)c1N
- TGI [1]: > 100 µM
- TGI [2]: > 100 µM
- TGI [3]: > 100 µM
- TGI [4]: > 100 µM
- TGI [44]: > 100 µM
- TGI [45]: > 100 µM
- TGI [5]: 50.8 µM
- TGI [6]: > 100 µM
- TGI [46]: > 100 µM
- TGI [10]: > 100 µM
- TGI [47]: > 100 µM
- TGI [48]: 39.8 µM
- TGI [49]: > 100 µM
- TGI [11]: 85 µM
- TGI [50]: > 100 µM
- TGI [51]: > 100 µM
- TGI [52]: > 100 µM
- TGI [13]: > 100 µM
- TGI [14]: > 100 µM
- TGI [15]: > 100 µM
- TGI [53]: > 100 µM
- TGI [16]: 41.7 µM
- TGI [18]: > 100 µM
- TGI [54]: > 100 µM
- TGI [55]: > 100 µM
- TGI [56]: 99.6 µM
- TGI [57]: 82.6 µM
- TGI [58]: 32.9 µM
- TGI [20]: 31.6 µM
- TGI [21]: > 100 µM
- TGI [22]: > 100 µM
- TGI [23]: > 100 µM
- TGI [59]: 67 µM
- TGI [60]: > 100 µM
- TGI [24]: > 100 µM
- TGI [25]: > 100 µM
- TGI [26]: > 100 µM
- TGI [27]: > 100 µM
- TGI [61]: > 100 µM
- TGI [28]: 82.7 µM
- TGI [29]: > 100 µM
- TGI [30]: > 100 µM
- TGI [31]: 68.5 µM
- TGI [32]: > 100 µM
- TGI [62]: > 100 µM
- TGI [33]: > 100 µM
- TGI [34]: > 100 µM
- TGI [35]: > 100 µM
- TGI [63]: 32.7 µM
- TGI [36]: > 100 µM
- TGI [37]: > 100 µM
- TGI [39]: 45.6 µM
- TGI [40]: 72 µM
- TGI [64]: > 100 µM
- TGI [41]: > 100 µM
- TGI [42]: > 100 µM
- TGI [65]: > 100 µM
- TGI [66]: > 100 µM
- TGI [43]: > 100 µM
